Data taken from patent US20080171783A1, “COMPOSITIONS AND METHODS FOR TREATING HYPERPROLIFERATIVE DISEASE” (Migenix Inc., priority 2006, published 2008).

What was measured:
[1] = system: HL-60; assay: Cell viability by XTT; format: cell-based; settings: HL-60, single dose 10 μM, four days
Method: (§1) Compounds were solubilized at […] in DMSO and were stored at −20° C. Test compounds were initially tested at a single concentration of 10 μM and a subset of test compounds were further tested in selected cell lines using a six concentration dose response curve.
(§2) Cell Preparation Cancer cell lines were passaged in T-75 flasks prior to use in the assay in cell culture medium recommended by the ATCC (American Type Culture Collection; Table 6). On the day preceding the assay, the cells were split 1:2 to assure they were in an exponential growth phase at the time of compound treatment. Total cell and viability quantification was performed using a hemocytometer and Trypan Blue dye exclusion. […] The cells were resuspended at the appropriate cell per mL (Table 6) in tissue culture medium and added to the microtitre plates in a volume of 100 μL. Colon cell lines were incubated overnight at 37° C./5% CO2 to allow for cell adherence to the plates.
(§3) Plate Format: Each plate contains cell control wells (cells only), drug calorimetric control wells (drug only) as well as experimental wells (drug plus cells). Samples were tested in triplicate at a concentration of 10 μM and five half-logarithmic dilutions.
(§4) Cell Viability by XTT: Following incubation at 37° C. in a 5% CO2 incubator for four days, the test plates were stained with the tetrazolium dye XTT (2,3-bis(2-methoxy-4-nitro-5-sulfophenyl)-5-[(phenylamino)carbonyl]-2H-tetrazolium hydroxide). XTT-tetrazolium was metabolized by the mitochondrial enzymes of metabolically active cells to a soluble formazan product. XTT solution was prepared daily as a stock of 1 mg/mL in RPMI1640. Phenazine methosulfate (PMS) solution was prepared at 0.15 mg/mL in phosphate buffered saline (PBS) and stored in the dark at −20° C. XTT/PMS stock was prepared immediately before use by adding 40 μL of PMS per mL of XTT solution. Fifty (50) microlitres of XTT/PMS was added to each well of the plate and the plate was reincubated for 4 hours at 37° C. Plates were sealed with adhesive plate sealers and shaken gently or inverted several times to mix the soluble formazan product and the plate was read spectrophotometrically at 450/650 nm with a Molecular Devices Vmax plate reader. […] An Average Response Factor (ARF) was calculated for each compound by averaging the ten Percentage of Control values for the cell lines. […] Deviations below 100% control indicate activity. The concentration of each tested compound is 10 μM.

[2] = system: HCT-15; assay: Cell viability by XTT; format: cell-based; settings: HCT-15, single dose 10 μM, four days
Method: as §1, §2, §3, §4

[3] = system: Caco-2; assay: Cell viability by XTT
Method: as §1, §2, §3, §4

[4] = system: THP-1; assay: Cell viability by XTT; settings: THP-1, single dose 10 μM, four days
Method: as §1, §2, §3, §4

[5] = system: Jurkat; assay: Cell viability by XTT; settings: single dose 10 μM, four days
Method: as §1, §2, §3, §4

[6] = system: 5 Leukemia and 5 Colon Cancer Cell Lines; assay: Cell viability by XTT, cell line panel; format: cell-based; settings: 10 μM
Method: as §1, §2, §3, §4

[7] = system: HT29; assay: cells; settings: HT29, single dose 10 μM, four days
Method: as §1, §2, §3, §4

[8] = molecular target: T1, Calf polymerase alpha (Bos taurus, UniProt A0AAA9TD94); assay: Calf polymerase alpha inhibition (Replizyme kit); format: biochemical; settings: for IC50: dose response
T1 construct: purchased Replizyme Ltd (Heslington, York, UK)
T1 sequence (A0AAA9TD94 1-1441): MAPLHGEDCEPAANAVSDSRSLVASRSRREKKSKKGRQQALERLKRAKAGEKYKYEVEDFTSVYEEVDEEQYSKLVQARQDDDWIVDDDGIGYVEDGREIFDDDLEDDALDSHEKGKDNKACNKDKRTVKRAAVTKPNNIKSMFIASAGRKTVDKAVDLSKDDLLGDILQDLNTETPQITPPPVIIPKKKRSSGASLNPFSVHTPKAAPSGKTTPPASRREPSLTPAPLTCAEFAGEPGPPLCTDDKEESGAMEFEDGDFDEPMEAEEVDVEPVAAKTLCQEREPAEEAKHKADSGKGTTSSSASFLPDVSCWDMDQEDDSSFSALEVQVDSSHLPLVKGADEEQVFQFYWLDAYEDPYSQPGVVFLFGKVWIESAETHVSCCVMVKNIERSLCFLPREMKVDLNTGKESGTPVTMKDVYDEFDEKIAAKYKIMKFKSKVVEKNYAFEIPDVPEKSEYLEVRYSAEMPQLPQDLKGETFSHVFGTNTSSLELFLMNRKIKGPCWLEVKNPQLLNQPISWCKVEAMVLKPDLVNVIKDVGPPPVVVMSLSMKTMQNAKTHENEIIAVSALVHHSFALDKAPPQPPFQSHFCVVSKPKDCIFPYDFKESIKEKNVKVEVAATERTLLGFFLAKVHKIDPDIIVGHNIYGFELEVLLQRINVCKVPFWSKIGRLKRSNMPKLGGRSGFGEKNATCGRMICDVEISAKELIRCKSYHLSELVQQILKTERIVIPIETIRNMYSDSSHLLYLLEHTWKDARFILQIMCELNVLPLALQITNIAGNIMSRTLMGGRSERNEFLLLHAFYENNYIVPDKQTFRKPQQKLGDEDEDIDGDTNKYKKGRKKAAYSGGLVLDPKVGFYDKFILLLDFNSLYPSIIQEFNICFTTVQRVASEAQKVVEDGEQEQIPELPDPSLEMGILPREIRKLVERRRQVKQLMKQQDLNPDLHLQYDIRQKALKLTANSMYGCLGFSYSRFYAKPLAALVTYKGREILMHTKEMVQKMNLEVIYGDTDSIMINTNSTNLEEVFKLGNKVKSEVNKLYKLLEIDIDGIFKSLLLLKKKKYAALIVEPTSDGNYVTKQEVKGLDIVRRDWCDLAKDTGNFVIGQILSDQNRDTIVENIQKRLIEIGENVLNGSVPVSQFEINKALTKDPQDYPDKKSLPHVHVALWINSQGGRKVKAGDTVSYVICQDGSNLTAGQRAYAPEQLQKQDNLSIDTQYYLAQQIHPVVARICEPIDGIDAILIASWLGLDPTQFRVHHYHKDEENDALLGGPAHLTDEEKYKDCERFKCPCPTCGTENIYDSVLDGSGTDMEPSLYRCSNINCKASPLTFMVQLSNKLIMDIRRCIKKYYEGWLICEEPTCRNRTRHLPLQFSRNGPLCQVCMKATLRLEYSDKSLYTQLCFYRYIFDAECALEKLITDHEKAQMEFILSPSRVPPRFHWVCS
Method: (§5) Calf polymerase alpha and human polymerase alpha investigations were performed with a kit available from Replizyme Ltd (Heslington, York, UK).

[9] = Cytotoxicity Huh-7 cells (MTS/PMS); format: cell-based; settings: human, 3-day incubation
Method: Cytotoxicity of compounds for use in treating hyperproliferative diseases or disorders was tested in Huh-7 cells using tetrazolium salt MTS combined with the electron acceptor PMS in a 96-well format. Six doses of each compound was tested, starting at about 1.2 μM to 0.4 μM serially diluted in a final 1% DMSO solution in DMEM/F12 media. Terfenadine was used as a positive control. Cells were seeded at 2.5×10^5 cells/mL in each well of the 96-well plates in a final volume of 0.1 mL, and then incubated at 37° C. in the presence of 5% CO2 overnight. Compounds (in media) were added the following day and the treated cells were incubated another 3-days at 37° C. in the presence of 5% CO2. After the 3-day incubation, 20 μL of MTS/PMS (3-(4,5-dimethylthiazol-2-yl)-5-(3-carboxymethoxy-phenyl)-2-(4-sulfophenyl)-2H-tetrazolium) was added to each well. After about a one to four hour incubation of MTS/PMS at 37° C. and 5% CO2—that is, until an OD490 absorbance of ≧0.6 for the wells containing cells with media only, the level of cytotoxicity at each concentration was calculated. […] Dose response results from the cytotoxicity assay (CC50) are provided in Table 4 in comparison with IC50 data (from Table 2)

[10] = molecular target: T2, human polymerase alpha (Homo sapiens, UniProt P09884); assay: Human polymerase alpha inhibition (Replizyme kit); format: biochemical; settings: dose response
T2 construct: purchased Replizyme Ltd (Heslington, York, UK)
T2 sequence (P09884 1-1462): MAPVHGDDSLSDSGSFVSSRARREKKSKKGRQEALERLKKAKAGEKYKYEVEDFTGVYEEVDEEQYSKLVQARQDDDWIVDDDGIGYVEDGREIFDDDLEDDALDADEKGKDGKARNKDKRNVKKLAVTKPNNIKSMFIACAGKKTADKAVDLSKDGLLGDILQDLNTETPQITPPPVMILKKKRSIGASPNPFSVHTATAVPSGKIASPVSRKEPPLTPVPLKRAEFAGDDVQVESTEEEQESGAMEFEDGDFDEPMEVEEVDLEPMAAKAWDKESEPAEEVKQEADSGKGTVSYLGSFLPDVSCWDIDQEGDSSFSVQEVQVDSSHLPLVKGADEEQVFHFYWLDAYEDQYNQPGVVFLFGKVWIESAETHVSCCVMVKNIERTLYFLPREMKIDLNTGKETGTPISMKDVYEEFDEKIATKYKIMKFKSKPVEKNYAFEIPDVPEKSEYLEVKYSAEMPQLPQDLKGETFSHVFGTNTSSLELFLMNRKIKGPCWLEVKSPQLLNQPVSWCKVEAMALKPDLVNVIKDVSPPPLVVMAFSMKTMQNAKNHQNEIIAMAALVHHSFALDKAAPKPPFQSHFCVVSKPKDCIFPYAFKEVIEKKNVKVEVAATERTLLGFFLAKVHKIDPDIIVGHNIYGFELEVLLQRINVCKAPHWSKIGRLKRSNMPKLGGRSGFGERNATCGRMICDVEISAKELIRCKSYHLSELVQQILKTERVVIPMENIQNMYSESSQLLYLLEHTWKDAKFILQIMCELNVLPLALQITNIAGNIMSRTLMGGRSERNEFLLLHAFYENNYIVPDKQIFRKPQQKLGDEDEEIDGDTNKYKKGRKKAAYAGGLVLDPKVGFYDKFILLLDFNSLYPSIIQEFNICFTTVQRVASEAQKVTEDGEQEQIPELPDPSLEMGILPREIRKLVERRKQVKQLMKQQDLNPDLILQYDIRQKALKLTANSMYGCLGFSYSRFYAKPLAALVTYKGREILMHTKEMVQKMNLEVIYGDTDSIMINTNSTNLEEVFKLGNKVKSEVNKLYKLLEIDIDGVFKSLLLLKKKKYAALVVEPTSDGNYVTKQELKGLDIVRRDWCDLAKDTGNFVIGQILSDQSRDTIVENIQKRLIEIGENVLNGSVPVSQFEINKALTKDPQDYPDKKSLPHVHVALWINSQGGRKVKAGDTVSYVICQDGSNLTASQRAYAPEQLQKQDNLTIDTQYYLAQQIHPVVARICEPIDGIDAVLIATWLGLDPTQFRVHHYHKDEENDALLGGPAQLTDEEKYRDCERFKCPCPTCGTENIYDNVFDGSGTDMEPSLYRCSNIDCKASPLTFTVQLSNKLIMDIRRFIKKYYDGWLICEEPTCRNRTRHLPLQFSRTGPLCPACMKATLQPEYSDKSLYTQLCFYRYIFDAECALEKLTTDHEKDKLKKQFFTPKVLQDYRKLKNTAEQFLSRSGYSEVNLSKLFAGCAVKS
Method: as §5

[11] = at 10 μM, single point screening

Cc1ccc(NC(=O)[C@H](CCCCN)NC(=O)Cc2ccc(-c3ccccc3)cc2)cc1 [Compound 50, (S)-6-AMINO-2-(2-BIPHENYL-4-YL-ACETYLAMINO)-HEXANOIC ACID P-TOLYLAMIDE]
Percentage of Cell Control [1]: 91.7%
Percentage of Cell Control [2]: 114.3%
Percentage of Cell Control ([3]; Caco-2, single dose 10 μM, four days): 8.3%
CC50 ([3]; read-out: Activity (TC50), Caco-2, six concentration dose response, Table 9): 9.4 µM
Percentage of Cell Control [4]: 89.7%
Percentage of Cell Control [5]: 4.6%
ARF (Average Response Factor, Average Percentage of Control) ([6]; average of the ten Percentage of Control values): 77.7%
Range (Percentage of Control over the same 10 cell lines) ([6]; lowest to highest of the ten cell lines): 4.6 to 122%
Percentage of Cell Control [7]: 27.7%
% Inhibition [8, 11]: 71%

NCCCC[C@H](NC(=O)Nc1ccc(-c2ccccc2)cc1)C(=O)Nc1ccc(C2CCCCC2)cc1 [Compound 119, (S)-6-AMINO-2-(3-BIPHENYL-4-YL-UREIDO)-HEXANOIC ACID (4-CYCLOHEXYL-PHENYL)-AMIDE]
CC50 at 3 days [9]: 12.2 µM
IC50 [10]: 1.5 µM
inhibition at 10 µM [8, 11]: 102%
IC50 [8]: 1.5 µM

Cc1ccc(NC(=O)[C@H](CCCCN)NC(=O)Nc2ccc3c(c2)Cc2ccccc2-3)cc1 [Compound 125, (S)-6-AMINO-2-[3-(9H-FLUOREN-2-YL)-UREIDO]-HEXANOIC ACID P-TOLYLAMIDE]
CC50 at 3 days [9]: 9.7 µM
IC50 [10]: 3 µM
inhibition at 10 µM [8, 11]: 100%
IC50 [8]: 2.8 µM

Cc1ccc(NC(=O)C[C@H](CCCCN)NC(=O)Nc2ccc(OCc3ccccc3)cc2)cc1 [Compound 246, (S)-7-AMINO-3-[3-(4-BENZYLOXY-PHENYL)-UREIDO]-HEPTANOIC ACID P-TOLYLAMIDE]
CC50 at 3 days [9]: 45.9 µM
IC50 [10]: 8 µM
inhibition at 10 µM [8, 11]: 46.6%
IC50 [8]: 9.8 µM

Cc1ccc(NC(=O)[C@H](CCCCN)NC(=O)Nc2ccc(OCc3ccccn3)cc2)cc1 [Compound 299, (S)-6-AMINO-2-{3-[4-(PYRIDIN-2-YLMETHOXY)-PHENYL]-UREIDO}-HEXANOIC ACID P-TOLYLAMIDE]
CC50 at 3 days [9]: > 100 µM
IC50 [10]: 68 µM
inhibition at 10 µM [8, 11]: 16%
IC50 [8]: > 30 µM

NCCCC[C@H](NC(=O)Nc1ccc(OCc2ccccc2)cc1)C(=O)NCc1ccco1 [Compound 302, (S)-6-AMINO-2-[3-(4-BENZYLOXY-PHENYL)-UREIDO]-HEXANOIC ACID (FURAN-2-YLMETHYL)-AMIDE]
CC50 at 3 days [9]: > 100 µM
IC50 [10]: 72 µM
inhibition at 10 µM [8, 11]: 5%
IC50 [8]: > 30 µM
